The values that follow come from US9637488B2, “Heterocyclic compounds as inhibitors of class I PI3KS” (priority 2015, dated 2017).

Usually IC50 stands for the concentration at which inhibition is half-maximal.

A value given as a limit tells only on which side of the number the result lay.

What all share (type): biochemical
One test addresses PI3Kγ (p110γ) (Homo sapiens (Human), UniProt P48736). Put plainly: cell-free PI3K HTRF assay, PI3Kγ. The note with it: ratio of IC50 against PI3Kγ related to PI3Kδ; 10-dose, 3-fold serial dilution starting at 10 μM. The protocol:
(§1) Exemplary compounds of the invention were tested for inhibitory activity and potency against class I PI3Ks (p110α/p85α, p110β/p85α, p110δ/p85α and p110γ) using a cell-free based PI3K HTRF assay. This assay was used to detect the formation of the product 3,4,5-inositol triphosphate molecule (PIP3) by displacement of biotin-PIP3 from an energy transfer complex consisting of Europium labeled anti-GST monoclonal antibody, a GST-tagged pleckstrin homology (PH) domain, biotinylated PIP3 and Streptavidin-Allophycocyanin (APC). Excitation of Europium in the complex results in an energy transfer to the APC and a fluorescent emission at 665 nm. The PIP3 product formed by human PI 3-Kinase activity displaces biotin-PIP3 from the complex resulting in a loss of energy transfer and thus a decrease in signal.
(§2) Human class I PI3K isoforms were co-expressed in a Baculovirus infected cell expression system. The PI3K isoforms were assayed in the presence of HEPES (50 mM, pH 7.0), NaN3 (0.02%), BSA (0.01%), orthovanadate (0.1 mM), and DMSO (1%). The exemplary compounds dissolved in DMSO were delivered into the kinase reaction mixture by Acoustic technology (Echo550; nanolitter range), and were pre-incubated for 10 min at room temperature before adding ATP (10 μM) to initiate the reaction. After 30 min at 30° C., the reactions were quenched with a stop solution, incubated overnight with a detection mixture before measuring HTRF (Ex: 320 nm; Em: 615/665 nm). The emission ratio is converted into μM PIP3 production based on PIP3 standard curves, and the nonlinear regression to obtain the standard curve and IC50 values are performed using Graphpad Prism software.
(§3) The assays were performed at Reaction Biology Corporation, One Great Valley Parkway, Suite 2, Malvern, Pa. 19355, USA.
(§4) Exemplary compounds of the invention selected were further tested their inhibitory activity or potency against PI3Kα, PI3Kβ, and PI3Kγ in 10-dose IC50 mode with 3-fold serial dilution starting at 10 μM. […] Table 5 below illustrates the selectivity of the exemplary compounds using the ratios of the IC50 values of the compounds against PI3Kα, PI3Kβ, and PI3Kγ related to PI3Kδ. […] Such unexpected selectivity against PI3Kδ and/or PI3Kγ is attributed to the unusual overall shape of the molecules of formula (I) and (II), and the optimal selection of R1, R2, R3, R4, X, and Y defined in formula (I) and (II) in order to bind favorably in the ATP-binding pocket of PI3Kδ and/or PI3Kγ versus other class I isozymes.
In general terms: TR-FRET usually uses a lanthanide donor and a delayed reading to cut background.

A further test addresses PI3Kβ (p110β/p85α) (Homo sapiens (Human), UniProt P42338). In words: cell-free PI3K HTRF assay, PI3Kβ. The following applies: ratio of IC50 against PI3Kβ related to PI3Kδ; 10-dose, 3-fold serial dilution starting at 10 μM. How it is done: as §1, §2, §3, §4
In a further test the target is PI3Kα (p110α/p85α) (Homo sapiens (Human), UniProt P42336). In words: cell-free PI3K HTRF assay, PI3Kα. The following applies: ratio of IC50 against PI3Kα related to PI3Kδ; 10-dose, 3-fold serial dilution starting at 10 μM. How it is done: as §1, §2, §3, §4
PI3Kα (p110α/p85α), sequence (P42336 whole entry): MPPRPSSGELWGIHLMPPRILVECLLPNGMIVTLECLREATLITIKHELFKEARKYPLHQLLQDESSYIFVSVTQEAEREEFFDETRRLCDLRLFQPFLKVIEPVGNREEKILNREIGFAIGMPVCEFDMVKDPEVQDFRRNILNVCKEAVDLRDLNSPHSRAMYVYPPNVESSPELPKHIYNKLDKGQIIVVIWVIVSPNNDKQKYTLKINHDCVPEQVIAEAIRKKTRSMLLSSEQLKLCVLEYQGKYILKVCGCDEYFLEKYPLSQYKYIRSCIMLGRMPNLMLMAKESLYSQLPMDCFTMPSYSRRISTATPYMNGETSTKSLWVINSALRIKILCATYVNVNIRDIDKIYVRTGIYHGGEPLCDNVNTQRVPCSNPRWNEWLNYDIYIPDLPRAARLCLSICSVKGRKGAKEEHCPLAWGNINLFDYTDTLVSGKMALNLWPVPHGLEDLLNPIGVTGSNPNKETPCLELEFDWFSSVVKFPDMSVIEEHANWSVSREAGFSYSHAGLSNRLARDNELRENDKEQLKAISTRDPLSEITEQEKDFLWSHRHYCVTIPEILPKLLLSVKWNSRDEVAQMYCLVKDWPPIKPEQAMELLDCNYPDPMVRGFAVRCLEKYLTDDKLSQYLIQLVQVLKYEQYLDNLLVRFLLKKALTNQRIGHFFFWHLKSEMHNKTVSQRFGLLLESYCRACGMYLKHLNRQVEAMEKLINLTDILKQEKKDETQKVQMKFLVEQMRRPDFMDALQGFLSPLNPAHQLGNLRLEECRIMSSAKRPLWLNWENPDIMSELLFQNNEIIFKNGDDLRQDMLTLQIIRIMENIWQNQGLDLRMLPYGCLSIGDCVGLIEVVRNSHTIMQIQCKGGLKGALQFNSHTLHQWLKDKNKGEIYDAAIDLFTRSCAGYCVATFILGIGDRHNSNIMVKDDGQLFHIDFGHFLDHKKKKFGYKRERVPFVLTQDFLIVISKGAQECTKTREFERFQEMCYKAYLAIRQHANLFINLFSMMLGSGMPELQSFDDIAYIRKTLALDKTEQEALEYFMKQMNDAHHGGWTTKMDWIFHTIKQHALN
PI3Kα (p110α/p85α), sequence (P27986 whole entry partner): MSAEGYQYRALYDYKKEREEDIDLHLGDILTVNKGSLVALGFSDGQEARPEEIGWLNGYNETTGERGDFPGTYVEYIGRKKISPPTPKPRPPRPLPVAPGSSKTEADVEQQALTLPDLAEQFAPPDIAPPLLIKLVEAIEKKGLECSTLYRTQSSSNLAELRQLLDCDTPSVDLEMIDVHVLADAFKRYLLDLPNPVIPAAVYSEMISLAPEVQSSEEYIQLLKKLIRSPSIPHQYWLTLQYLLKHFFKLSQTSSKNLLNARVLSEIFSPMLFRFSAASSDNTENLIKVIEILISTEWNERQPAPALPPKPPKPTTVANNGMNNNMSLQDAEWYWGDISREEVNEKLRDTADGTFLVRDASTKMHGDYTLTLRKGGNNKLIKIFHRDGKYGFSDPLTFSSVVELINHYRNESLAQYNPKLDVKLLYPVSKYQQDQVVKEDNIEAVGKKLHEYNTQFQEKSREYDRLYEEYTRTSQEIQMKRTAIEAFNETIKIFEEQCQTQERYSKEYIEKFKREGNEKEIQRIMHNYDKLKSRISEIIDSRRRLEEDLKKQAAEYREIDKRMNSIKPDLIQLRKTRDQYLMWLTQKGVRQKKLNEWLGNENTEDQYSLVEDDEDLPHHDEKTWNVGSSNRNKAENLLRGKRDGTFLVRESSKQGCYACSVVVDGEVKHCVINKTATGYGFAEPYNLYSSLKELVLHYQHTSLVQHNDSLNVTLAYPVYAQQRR
Another test deals with PI3Kδ (p110δ/p85α) (Homo sapiens (Human), UniProt O00329). Put plainly: cell-free PI3K HTRF assay, PI3Kδ. The note with it: 10-dose IC50 mode, 3-fold serial dilution starting at 1 μM; ATP 10 μM; read-out: IC50 value for the inhibition of PI3Kδ.
PI3Kδ (p110δ/p85α), sequence (O00329 whole entry): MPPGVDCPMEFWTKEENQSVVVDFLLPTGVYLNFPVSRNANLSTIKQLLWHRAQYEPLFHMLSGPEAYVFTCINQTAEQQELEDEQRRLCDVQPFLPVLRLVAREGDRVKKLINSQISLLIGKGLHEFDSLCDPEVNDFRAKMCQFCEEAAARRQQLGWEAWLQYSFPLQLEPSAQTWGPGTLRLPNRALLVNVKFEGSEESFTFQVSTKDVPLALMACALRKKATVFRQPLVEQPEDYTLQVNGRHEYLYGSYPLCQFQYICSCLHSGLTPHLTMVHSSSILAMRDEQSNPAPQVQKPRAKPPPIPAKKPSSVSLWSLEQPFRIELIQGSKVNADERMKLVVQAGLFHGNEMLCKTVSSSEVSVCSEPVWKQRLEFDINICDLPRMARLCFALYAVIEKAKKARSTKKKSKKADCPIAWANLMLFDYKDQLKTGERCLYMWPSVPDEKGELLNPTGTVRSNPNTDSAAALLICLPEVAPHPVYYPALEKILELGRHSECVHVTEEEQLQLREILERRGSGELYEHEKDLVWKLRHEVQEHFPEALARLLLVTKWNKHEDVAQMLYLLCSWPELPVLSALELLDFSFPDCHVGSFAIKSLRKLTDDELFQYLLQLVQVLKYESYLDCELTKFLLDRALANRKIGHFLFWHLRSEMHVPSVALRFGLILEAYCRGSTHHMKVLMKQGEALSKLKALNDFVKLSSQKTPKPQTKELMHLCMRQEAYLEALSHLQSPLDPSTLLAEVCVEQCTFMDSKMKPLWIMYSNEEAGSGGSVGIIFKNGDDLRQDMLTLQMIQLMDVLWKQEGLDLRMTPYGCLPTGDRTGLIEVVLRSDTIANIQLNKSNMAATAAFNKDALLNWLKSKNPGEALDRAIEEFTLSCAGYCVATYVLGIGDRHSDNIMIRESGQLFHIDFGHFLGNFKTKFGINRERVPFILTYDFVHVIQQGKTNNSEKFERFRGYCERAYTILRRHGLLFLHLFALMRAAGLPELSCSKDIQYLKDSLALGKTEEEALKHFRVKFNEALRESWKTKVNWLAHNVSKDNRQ
PI3Kδ (p110δ/p85α), sequence (P27986 whole entry partner): as the sequence (P27986 whole entry partner) above

PI3Kγ (p110γ), sequence (P48736 whole entry): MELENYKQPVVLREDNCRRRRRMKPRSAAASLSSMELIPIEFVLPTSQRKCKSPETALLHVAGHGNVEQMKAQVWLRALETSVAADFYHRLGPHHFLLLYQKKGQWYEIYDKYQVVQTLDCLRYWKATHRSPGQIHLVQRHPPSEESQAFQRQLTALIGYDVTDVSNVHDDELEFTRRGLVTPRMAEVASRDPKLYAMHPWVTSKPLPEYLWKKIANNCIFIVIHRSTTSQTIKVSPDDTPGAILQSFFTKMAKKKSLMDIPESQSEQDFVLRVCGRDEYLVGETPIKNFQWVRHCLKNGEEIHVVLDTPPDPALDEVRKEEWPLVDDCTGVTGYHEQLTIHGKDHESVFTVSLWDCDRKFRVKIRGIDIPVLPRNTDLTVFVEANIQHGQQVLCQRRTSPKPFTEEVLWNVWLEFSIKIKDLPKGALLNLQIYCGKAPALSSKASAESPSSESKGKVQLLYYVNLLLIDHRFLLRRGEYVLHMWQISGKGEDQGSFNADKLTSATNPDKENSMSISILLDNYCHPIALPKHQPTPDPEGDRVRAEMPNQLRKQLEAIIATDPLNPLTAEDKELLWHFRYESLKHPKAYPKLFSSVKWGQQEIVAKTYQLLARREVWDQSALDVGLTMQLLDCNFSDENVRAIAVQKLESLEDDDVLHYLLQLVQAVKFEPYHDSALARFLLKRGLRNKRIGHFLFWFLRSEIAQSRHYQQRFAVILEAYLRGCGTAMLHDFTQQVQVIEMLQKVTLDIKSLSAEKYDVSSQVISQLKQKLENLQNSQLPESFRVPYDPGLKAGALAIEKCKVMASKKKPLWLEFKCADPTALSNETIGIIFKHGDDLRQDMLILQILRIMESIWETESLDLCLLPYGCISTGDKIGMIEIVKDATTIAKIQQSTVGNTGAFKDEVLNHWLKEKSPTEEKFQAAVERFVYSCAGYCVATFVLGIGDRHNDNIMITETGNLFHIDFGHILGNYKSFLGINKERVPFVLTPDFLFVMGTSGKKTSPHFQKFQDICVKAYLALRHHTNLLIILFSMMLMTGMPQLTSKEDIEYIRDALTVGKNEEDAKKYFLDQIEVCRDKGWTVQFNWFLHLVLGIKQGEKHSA
PI3Kβ (p110β/p85α), sequence (P42338 whole entry): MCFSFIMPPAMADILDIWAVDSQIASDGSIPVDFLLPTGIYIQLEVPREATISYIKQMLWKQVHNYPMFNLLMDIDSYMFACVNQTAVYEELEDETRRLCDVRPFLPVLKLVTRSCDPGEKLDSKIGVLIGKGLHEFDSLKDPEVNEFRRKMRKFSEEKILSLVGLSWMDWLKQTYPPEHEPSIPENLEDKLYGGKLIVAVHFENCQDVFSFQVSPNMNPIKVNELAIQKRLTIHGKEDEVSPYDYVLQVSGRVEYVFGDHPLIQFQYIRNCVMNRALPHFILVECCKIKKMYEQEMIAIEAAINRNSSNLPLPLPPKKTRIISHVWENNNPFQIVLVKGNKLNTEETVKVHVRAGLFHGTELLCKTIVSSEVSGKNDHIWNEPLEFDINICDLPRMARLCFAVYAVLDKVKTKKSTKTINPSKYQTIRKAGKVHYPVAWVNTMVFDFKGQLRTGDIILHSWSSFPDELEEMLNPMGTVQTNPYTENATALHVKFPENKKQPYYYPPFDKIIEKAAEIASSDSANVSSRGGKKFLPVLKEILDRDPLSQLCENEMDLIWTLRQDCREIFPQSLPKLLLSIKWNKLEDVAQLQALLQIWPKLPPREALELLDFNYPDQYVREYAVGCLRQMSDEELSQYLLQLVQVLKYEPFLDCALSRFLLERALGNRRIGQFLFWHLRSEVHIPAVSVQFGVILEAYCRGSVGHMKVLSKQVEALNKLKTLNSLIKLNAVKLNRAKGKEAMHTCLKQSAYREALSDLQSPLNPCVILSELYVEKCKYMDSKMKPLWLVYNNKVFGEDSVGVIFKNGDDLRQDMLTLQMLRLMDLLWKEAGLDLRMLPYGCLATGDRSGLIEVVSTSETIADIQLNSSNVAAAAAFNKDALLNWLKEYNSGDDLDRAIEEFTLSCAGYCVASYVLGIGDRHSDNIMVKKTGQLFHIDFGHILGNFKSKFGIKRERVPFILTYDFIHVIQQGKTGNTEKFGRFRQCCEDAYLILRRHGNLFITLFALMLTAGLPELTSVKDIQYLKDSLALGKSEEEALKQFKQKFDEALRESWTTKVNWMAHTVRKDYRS
PI3Kβ (p110β/p85α), sequence (P27986 whole entry partner): as the sequence (P27986 whole entry partner) above

Consider `Fc1ccc2cc(C3CCCN3c3ncnc4[nH]cnc34)c(N3CCOCC3)nc2c1` (stereo not drawn) [Compound 20], for which the “Ratio (γ/δ)” value at PI3Kγ (p110γ) amounted to 18.8. Further, the “Ratio (β/δ)” value on PI3Kβ (p110β/p85α) stood at 190. Moreover, the “Ratio (α/δ)” value on PI3Kα (p110α/p85α) is recorded as 528. Further, at PI3Kδ (p110δ/p85α), the IC50 turned out to be 19 nM.
With `Fc1ccc2cc(C3CCCN3c3ncnc4[nH]cnc34)c(-c3ccccc3)nc2c1` (stereo not drawn) [Compound 21], on PI3Kγ (p110γ), the “Ratio (γ/δ)” value is recorded as 67.5. In addition, the “Ratio (β/δ)” value at PI3Kβ (p110β/p85α) is recorded as 3550. At PI3Kα (p110α/p85α), the “Ratio (α/δ)” value is on record as 12818. In addition, the IC50 on PI3Kδ (p110δ/p85α) was found to be 0.7 nM.
For the compound `Fc1cccc(-c2nc3cc(F)ccc3cc2C2CCCN2c2ncnc3[nH]cnc23)c1` (stereo not drawn) [Compound 22], the “Ratio (γ/δ)” value at PI3Kγ (p110γ) came out at 139. Also, the “Ratio (β/δ)” value on PI3Kβ (p110β/p85α) was determined as 8946. The “Ratio (α/δ)” value on PI3Kα (p110α/p85α) is on record as 16451. In addition, on PI3Kδ (p110δ/p85α), the IC50 was 0.5 nM.
For `COc1cccc(-c2nc3cc(F)ccc3cc2C2CCCN2c2ncnc3[nH]cnc23)c1` (stereo not drawn) [Compound 23], the “Ratio (γ/δ)” value at PI3Kγ (p110γ) was determined as 50. Besides, at PI3Kβ (p110β/p85α), the “Ratio (β/δ)” value worked out at 396. In addition, the “Ratio (α/δ)” value at PI3Kα (p110α/p85α) is >926. Besides, the IC50 on PI3Kδ (p110δ/p85α) turned out to be 11 nM.
Regarding `Fc1ccc2cc(C3CCCN3c3ncnc4[nH]cnc34)c(-c3ccccc3F)nc2c1` (stereo not drawn) [Compound 24], the “Ratio (γ/δ)” value at PI3Kγ (p110γ) is given as 22. At PI3Kβ (p110β/p85α), the “Ratio (β/δ)” value is given as 393. For the same compound, the “Ratio (α/δ)” value on PI3Kα (p110α/p85α) was >613. The IC50 on PI3Kδ (p110δ/p85α) was determined as 16 nM.
As to `COc1ccccc1-c1nc2cc(F)ccc2cc1C1CCCN1c1ncnc2[nH]cnc12` (stereo not drawn) [Compound 25], the “Ratio (γ/δ)” value on PI3Kγ (p110γ) is reported as 5.1. For the same compound, at PI3Kβ (p110β/p85α), the “Ratio (β/δ)” value is recorded as 297. The “Ratio (α/δ)” value at PI3Kα (p110α/p85α) is on record as >694. The IC50 at PI3Kδ (p110δ/p85α) stood at 14 nM.
With `Fc1ccc2cc(C3CCCN3c3ncnc4[nH]cnc34)c(-c3cccc(OC(F)(F)F)c3)nc2c1` (stereo not drawn) [Compound 26], the “Ratio (γ/δ)” value at PI3Kγ (p110γ) came out at 12. The “Ratio (β/δ)” value at PI3Kβ (p110β/p85α) was determined as 39.7. Besides, at PI3Kα (p110α/p85α), the “Ratio (α/δ)” value is on record as 483. Besides, the IC50 at PI3Kδ (p110δ/p85α) came out at 207 nM.
As to `N#Cc1c(N)nc(N)nc1N1CCCC1c1cc2ccc(F)cc2nc1-c1ccccc1` (stereo not drawn) [Compound 27], the “Ratio (γ/δ)” value on PI3Kγ (p110γ) was >2.3. The “Ratio (β/δ)” value at PI3Kβ (p110β/p85α) was >2185. Also, the “Ratio (α/δ)” value at PI3Kα (p110α/p85α) is reported as >12756. At PI3Kδ (p110δ/p85α), the IC50 is < 0.05 nM.
With `N#Cc1c(N)ncnc1N1CCCC1c1cc2ccc(F)cc2nc1-c1ccccc1` (stereo not drawn) [Compound 29], at PI3Kγ (p110γ), the “Ratio (γ/δ)” value came out at 52.4. Moreover, the “Ratio (β/δ)” value on PI3Kβ (p110β/p85α) was 478. Further, on PI3Kα (p110α/p85α), the “Ratio (α/δ)” value is 2170. Moreover, at PI3Kδ (p110δ/p85α), the IC50 was determined as 1.7 nM.
In the same order, the values of `COc1cccc(-c2nc3cc(F)ccc3cc2C2CCCN2c2ncnc(N)c2C#N)c1` (stereo not drawn) [Compound 30] are 85, 631, 962 and 4.8 nM.
Taken in the same sequence, the figures for `Fc1ccc2cc(C3CCCCN3c3ncnc4[nH]cnc34)c(N3CCOCC3)nc2c1` (stereo not drawn) [Compound 38, 4-(3-(1-(9H-purin-6-yl)piperidin-2-yl)-7-fluoroquinolin-2-yl)morpholine] were 106, 537, 529 and 7.1 nM.
In the same order, the values of `Fc1ccc2cc(C3CC=CCN3c3ncnc4[nH]cnc34)c(N3CCOCC3)nc2c1` (stereo not drawn) [Compound 43] are 39, 169, 689 and 6.8 nM.
In the case of `Cc1cccc2cc([C@@H]3CCCN3c3nc(N)nc(N)c3C#N)c(-c3ccccc3)nc12` [Compound 54, (S)-2,4-diamino-6-(2-(8-methyl-2-phenylquinolin-3-yl)pyrrolidin-1-yl)pyrimidine-5-carbonitrile], on PI3Kγ (p110γ), the “Ratio (γ/δ)” value is ~10. Further, on PI3Kβ (p110β/p85α), the “Ratio (β/δ)” value is on record as >1120. The “Ratio (α/δ)” value at PI3Kα (p110α/p85α) is recorded as >1801. On PI3Kδ (p110δ/p85α), the IC50 is < 0.05 nM.
As to `Fc1ccc2cc([C@@H]3CCCN3c3ncnc4[nH]cnc34)c(-c3ccccn3)nc2c1` [Compound 62], the “Ratio (γ/δ)” value on PI3Kγ (p110γ) is reported as 53. Further, the “Ratio (β/δ)” value on PI3Kβ (p110β/p85α) is 520. In addition, at PI3Kα (p110α/p85α), the “Ratio (α/δ)” value is >781. Besides, at PI3Kδ (p110δ/p85α), the IC50 is 12.8 nM.
As for `Cc1cccc2cc([C@@H]3CCCN3c3ncnc4[nH]cnc34)c(-c3ccccc3)nc12` [Compound 63], on PI3Kγ (p110γ), the “Ratio (γ/δ)” value turned out to be 5.6. Besides, the “Ratio (β/δ)” value at PI3Kβ (p110β/p85α) is listed as 264. For the same compound, the “Ratio (α/δ)” value on PI3Kα (p110α/p85α) worked out at 556. For the same compound, the concentration for half-maximal inhibition (IC50) on PI3Kδ (p110δ/p85α) is 18 nM.
Consider `Cc1cccc2cc([C@@H]3CCCN3c3ncnc4[nH]cnc34)c(N3CCOCC3)nc12` [Compound 64], for which the “Ratio (γ/δ)” value at PI3Kγ (p110γ) amounted to 48. At PI3Kβ (p110β/p85α), the “Ratio (β/δ)” value stood at 317. The “Ratio (α/δ)” value at PI3Kα (p110α/p85α) is 748. On PI3Kδ (p110δ/p85α), the IC50 is 1.6 nM.
In the same order, the values of `Cc1cccc2cc([C@@H]3CCCN3c3ncnc(N)c3C#N)c(N3CCOCC3)nc12` [Compound 65] are >188, >789, >1738 and < 0.05 nM.
Taken in the same sequence, the figures for `Clc1cccc2cc([C@@H]3CCCN3c3ncnc4[nH]cnc34)c(N3CCOCC3)nc12` [Compound 66] were 24, 250, 493 and 1.8 nM.
Take `N#Cc1c(N)ncnc1N1CCC[C@H]1c1cc2cccc(Cl)c2nc1-c1ccccc1` [Compound 67]: at PI3Kγ (p110γ), the “Ratio (γ/δ)” value was >5.6. Also, the “Ratio (β/δ)” value at PI3Kβ (p110β/p85α) was found to be 1368. In addition, the “Ratio (α/δ)” value at PI3Kα (p110α/p85α) was >8583. In addition, at PI3Kδ (p110δ/p85α), the IC50 is < 0.05 nM.
For the compound `N#Cc1c(N)nc(N)nc1N1CCC[C@H]1c1cc2cccc(Cl)c2nc1-c1ccccc1` [Compound 68], at PI3Kγ (p110γ), the “Ratio (γ/δ)” value is given as ~10. At PI3Kβ (p110β/p85α), the “Ratio (β/δ)” value is listed as >106. The “Ratio (α/δ)” value on PI3Kα (p110α/p85α) is >545. At PI3Kδ (p110δ/p85α), the IC50 was < 0.05 nM.
Consider `N#Cc1c(N)ncnc1N1CCC[C@H]1c1cc2cccc(Cl)c2nc1N1CCOCC1` [Compound 69], for which the “Ratio (γ/δ)” value at PI3Kγ (p110γ) is reported as >31. At PI3Kβ (p110β/p85α), the “Ratio (β/δ)” value is >111. For the same compound, the “Ratio (α/δ)” value at PI3Kα (p110α/p85α) is >4154. Moreover, the IC50 on PI3Kδ (p110δ/p85α) is < 0.05 nM.
